Source: patent US12162879B2, “Pyridopyrimidine derivative, preparation method therefor and medical use thereof” (Jiangsu Hengrui Medicine Co., Ltd., priority 2018, dated 2024)

Assays:
Format in all cases: cell-based
human TLR8 = human TLR8 (Homo sapiens (Human), UniProt Q9NR97); assay: Agonist activity on human TLR8 in HEK-Blue hTLR8 stably transfected cells; conditions: 16 hours, OD 620 nm
Protocol: The agonist effect of the compounds of the present invention on hTLR8 expressed by the HEK-Blue™ hTLR8 stably transfected cells was determined by the following experimental method.
(§1) • 1. DMEM(Gibco, 10564-029); • 2. Fetal bovine serum (GIBCO, 10099); • 3. Trypan blue solution (Sigma, T8154-100 ML); • 4. Flexstation 3 multi-function microplate reader (Molecular Devices); • 5. HEK-Blue™ hTLR8 cell line (InvivoGen, hkb-hTLR8), or HEK-Blue™ hTLR7 cell line (InvivoGen, hkb-hTLR7); • 6. HEK-Blue detection reagent (InvivoGen, hb-det3); and • 7. Phosphate buffer solution (PBS) pH 7.4 (Shanghai Basalmedia Technologies Co., Ltd., B320). II. Experimental Procedures a. Determination of Agonist Activity on Human TLR8
(§2) A bag of HEK-Blue detection dry powder was dissolved in 50 ml of water free of endotoxin, and the solution was then placed in an incubator at 37° C. for 10 minutes followed by sterile filtration to prepare a HEK-Blue detection medium. The compound was firstly formulated into a 20 mM stock solution, then diluted with pure DMSO to a maximum concentration of 6×10^6 nM, and a total of 10 points were obtained by a 3-fold gradient dilution. The above formulated compound was firstly diluted 20-fold with the medium, then 20 μl of the diluted compound was added to each well.
(§3) The supernate was removed from the HEK-Blue™ hTLR8 cells, to which 2-5 ml of pre-warmed PBS was then added. The cells were placed in an incubator for 1-2 minutes, gently pipetted, and counted by trypan blue staining. The cells were re-suspended in the HEK-Blue detection medium to adjust the concentration to 2.2×10^5 cells/ml. 180 μl of cells was added to the above 96-well plate comprising 20 μl of the compound, and incubated at 37° C. for 16 hours.
(§4) The corresponding OD values were obtained by a microplate reader at a wavelength of 620 nm, and the EC50 values of the compounds were calculated by Graphpad Prism.

[1] = test system: peripheral blood mononuclear cells (PBMC); assay: Stimulation of IL12 secretion from PBMC (ELISA); conditions: minimum effective concentration, human PBMC, 24 hours
Protocol: (§5) The stimulating effect of the compounds of the present invention on the ability of secretion of IL12 and IFN γ from PBMC was determined by the following experimental method.
(§6) • 1. RMPI 1640 (Invitrogen, 11875); • 2. FBS (Gibco, 10099-141); • 3. Ficoll-Paque PREMIUM (GE, 17-5442-02); • 4. Trypan blue solution (Sigma, T8154-100 ML); • 5. SepMate™-50 (Stemcell, 15460); • 6. Bright-LineIM blood cell counter (Sigma, Z359629-1EA); • 7. 96-well cell culture plate (Corning, 3599); • 8. 96-well v-bottom plate (Corning, 3894); • 9. Human IL-12 ELISA kit (Neobioscience Technology Co., EHC152.96); • 10. Human IFN γ kit (cisbio, 62HIFNGPEG); and • 11. PHERAStar multi-function microplate reader (BMG, PHERAStar). II. Experimental Procedures
(§7) The compound was diluted with pure DMSO to a maximum concentration of 5 mM, and a total of 9 points were obtained by a 4-fold gradient dilution. 4 μl of the compound solution was then added to 196 μl of RMPI 1640 medium containing 10% FBS and mixed well. 50 μl of the mixture was taken and added to a 96-well cell culture plate.
(§8) All reagents were equilibrated to room temperature. 60 ml of blood from a healthy human and the same volume of PBS (containing 2% FBS) were added to a 250 ml culture flask, gently pipetted, mixed well and diluted. 15 ml of lymphocyte separation solution Ficoll-Paque PREMIUM was added to a 50 ml PBMC centrifuge tube SepMate™-50, followed by the addition of 30 ml of the above diluted blood. The mixture was centrifuged at 1200 g for 10 minutes at room temperature. The supernatant was taken and then centrifuged at 300 g for 8 minutes. The cells were re-suspended in the RMPI 1640 medium containing 10% FBS and counted, and the number of PBMCs was adjusted to 3.33×10^6 cells/ml. 150 μl of the cell solution was added to the plate containing the compounds, and incubated in an incubator at 37° C., 5.0% CO2 for 24 hours. The cell culture plate was placed in a centrifuge, and centrifuged at 1200 rpm for 10 minutes at room temperature. 150 μl of the supernatant was taken from each well.
The reagents in the Human IL-12 ELISA kit were equilibrated to room temperature. According to the kit's instruction, the highest concentration of the standard is 2000 pg/ml, and a total of 8 points were obtained by a 2-fold gradient dilution. The sample to be tested was diluted 20 folds. The solution was then added to a pre-coated plate at 100 μl/well. The plate was incubated at 37° C. for 90 minutes and rinsed. The […] was added at 100 μl/well, and the plate was incubated at 37° C. for 60 minutes and rinsed. HRP binding enzyme was added at 100 μl/well, and the plate was incubated at 37° C. for 30 minutes and rinsed. TMB was added, and the plate was incubated at room temperature for 5 minutes. Finally, the stop solution was added to stop the reaction, and the absorbance at 450 nm was read by the microplate reader.
(§9) The concentration of the compound that can stimulate PBMC to produce […] that is 3 times higher than the average value of the group without the compound (SD of the group without the compound) was defined as the minimum effective concentration (MEC) value of the compound.

[2] = test system: peripheral blood mononuclear cells (PBMC); assay: Stimulation of IFNγ secretion from PBMC; conditions: minimum effective concentration, human PBMC, 24 hours
Protocol: as §5, §6, §7, §8
The reagents in the Human IFN γ test kit were equilibrated to room temperature. The standard and detection antibody were prepared according to the kit's instruction under dark conditions. 16 μl of the supernatant obtained by centrifugation was added to each well, and 4 μl of freshly prepared mixed detection antibody was added to each well. The solution was mixed well by shaking, and incubated overnight in the dark at room temperature. The plate was read by the PHERAStar multi-function microplate reader.
as §9

human TLR7 = human TLR7 (Homo sapiens (Human), UniProt Q9NYK1); assay: Agonist activity on human TLR7 in HEK-Blue hTLR7 cells; conditions: 16 hours, OD 620 nm
Protocol: as §1, §2
as §3, with “hTLR7” for “hTLR8”
as §4

human TLR8, sequence (Q9NR97 27-1041): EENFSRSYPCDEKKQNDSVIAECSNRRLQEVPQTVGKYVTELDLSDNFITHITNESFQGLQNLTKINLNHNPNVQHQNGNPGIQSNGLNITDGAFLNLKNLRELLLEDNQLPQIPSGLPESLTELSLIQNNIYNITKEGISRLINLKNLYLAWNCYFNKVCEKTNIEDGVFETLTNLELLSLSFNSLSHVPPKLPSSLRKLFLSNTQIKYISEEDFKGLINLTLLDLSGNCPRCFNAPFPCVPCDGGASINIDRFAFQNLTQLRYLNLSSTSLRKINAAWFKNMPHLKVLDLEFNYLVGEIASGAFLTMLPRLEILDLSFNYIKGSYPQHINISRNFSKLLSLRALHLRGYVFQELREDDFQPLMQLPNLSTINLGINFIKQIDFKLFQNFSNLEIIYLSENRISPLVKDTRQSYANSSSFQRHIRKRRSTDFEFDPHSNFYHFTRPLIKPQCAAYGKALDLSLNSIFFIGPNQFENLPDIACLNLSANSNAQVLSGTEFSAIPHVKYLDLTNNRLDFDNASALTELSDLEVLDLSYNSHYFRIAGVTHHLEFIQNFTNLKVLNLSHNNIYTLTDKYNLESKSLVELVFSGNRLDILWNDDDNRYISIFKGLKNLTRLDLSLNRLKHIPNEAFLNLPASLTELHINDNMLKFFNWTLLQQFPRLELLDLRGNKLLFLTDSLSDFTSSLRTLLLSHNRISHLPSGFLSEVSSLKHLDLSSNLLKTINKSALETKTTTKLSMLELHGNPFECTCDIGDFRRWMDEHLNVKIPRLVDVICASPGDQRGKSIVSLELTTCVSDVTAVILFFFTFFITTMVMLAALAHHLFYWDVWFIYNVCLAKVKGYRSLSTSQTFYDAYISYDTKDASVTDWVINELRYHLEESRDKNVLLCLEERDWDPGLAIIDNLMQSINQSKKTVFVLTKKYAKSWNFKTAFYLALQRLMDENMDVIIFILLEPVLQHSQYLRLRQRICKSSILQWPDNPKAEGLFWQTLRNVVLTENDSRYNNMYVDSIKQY
human TLR7, sequence (Q9NYK1 27-1049): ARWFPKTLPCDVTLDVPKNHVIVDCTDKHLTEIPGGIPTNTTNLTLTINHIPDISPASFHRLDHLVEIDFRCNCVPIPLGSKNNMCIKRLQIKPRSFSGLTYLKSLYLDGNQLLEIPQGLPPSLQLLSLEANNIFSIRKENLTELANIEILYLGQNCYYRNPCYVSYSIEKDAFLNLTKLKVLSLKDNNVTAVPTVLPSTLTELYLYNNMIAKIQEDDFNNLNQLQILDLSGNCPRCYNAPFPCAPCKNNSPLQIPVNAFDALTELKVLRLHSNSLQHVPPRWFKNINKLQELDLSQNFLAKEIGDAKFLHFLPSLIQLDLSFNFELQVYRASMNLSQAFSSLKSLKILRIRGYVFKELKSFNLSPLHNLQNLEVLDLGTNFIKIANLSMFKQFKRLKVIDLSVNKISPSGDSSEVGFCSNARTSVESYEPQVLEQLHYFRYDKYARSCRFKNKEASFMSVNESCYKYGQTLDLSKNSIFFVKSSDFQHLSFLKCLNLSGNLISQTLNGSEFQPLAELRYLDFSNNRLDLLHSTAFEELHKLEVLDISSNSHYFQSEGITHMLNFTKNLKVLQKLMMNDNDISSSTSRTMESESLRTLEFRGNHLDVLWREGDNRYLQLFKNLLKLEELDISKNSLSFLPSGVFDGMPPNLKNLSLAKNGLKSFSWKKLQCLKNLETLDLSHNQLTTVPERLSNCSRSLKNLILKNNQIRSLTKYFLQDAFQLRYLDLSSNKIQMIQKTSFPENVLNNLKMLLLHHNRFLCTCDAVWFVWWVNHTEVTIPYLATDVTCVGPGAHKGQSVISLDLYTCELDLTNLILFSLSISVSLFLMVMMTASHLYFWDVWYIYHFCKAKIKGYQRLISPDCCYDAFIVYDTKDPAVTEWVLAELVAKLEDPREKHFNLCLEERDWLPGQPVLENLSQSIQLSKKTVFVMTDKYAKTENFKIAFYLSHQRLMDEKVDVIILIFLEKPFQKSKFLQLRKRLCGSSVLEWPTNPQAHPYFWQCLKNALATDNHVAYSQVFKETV

Row | EC50 (human TLR8) [nM] | Emax (human TLR8) [%] | EC50 (human TLR7) [nM] | Emax (human TLR7) [%] | SMILES | IL12 MEC [1] [nM] | IFNγ MEC [2] [nM]
1 | 130 | 97 | – | – | CCCCC(C)(CO)Nc1nc(N)nc2cc(-c3ccc(CN4CCCC4)nc3)cnc12 (centres unmarked) [Example 1, 2-((2-Amino-7-(6-(pyrrolidin-1-ylmethyl)pyridin-3-yl)pyrido[3,2-d]pyrimidin-4-yl)amino)-2-methylhexan-1-ol] | – | –
2 | 100 | 104 | – | – | CCCCC(C)(CO)Nc1nc(N)nc2cc(-c3ccc(C4CCN(C)CC4)nc3)cnc12 (centres unmarked) [Example 3, 2-((2-Amino-7-(6-(1-methylpiperidin-4-yl)pyridin-3-yl)pyrido[3,2-d]pyrimidin-4-yl)amino)-2-methylhexan-1-ol] | 15 | 27
3 | 80 | 116 | – | – | CCCC[C@](C)(CO)Nc1nc(N)nc2cc(-c3cnc(CN4CCN(C)CC4)nc3)cnc12 [Example 7, (R)-2-((2-Amino-7-(2-((4-methylpiperazin-1-yl)methyl)pyrimidin-5-yl)pyrido[3,2-d]pyrimidin-4-yl)amino)-2-methylhexan-1-ol] | – | –
4 | 150 | 103 | > 30000 | 5 | CCCCC(C)(CO)Nc1nc(N)nc2cc(-c3ccc(CN4CCNCC4)nc3)cnc12 (centres unmarked) [Example 9, 2-((2-Amino-7-(6-(piperazin-1-ylmethyl)pyridin-3-yl)pyrido[3,2-d]pyrimidin-4-yl)amino)-2-methylhexan-1-ol] | 24 | 94
